The values that follow come from patent US20070010478A1 (priority 2005, published 2007).

In one data set the target is P450 isoenzyme 3A4 (Homo sapiens, UniProt P08684). Conditions: cited from earlier work.
A further data set has as its target T1, P-gp (Homo sapiens, UniProt P08183).
T1 construct: endogenous in cells; host or cells: circulating NK cells and leukemic blasts of AML patients
The experiment in a line: cellular P-gp function, DiOC2 accumulation assay with flow cytometry, in AML patients. It is filed as in vivo. The settings on record: circulating NK cells and leukemic blasts; 700 mg/day continuous iv infusion. The method, then: Cytarabine was also administered (100 mg/m^2/day) starting after the first dose of daunorubicin as a continuous intravenous infusion on days 1-7. Blood samples were taken at intervals for pharmacokinetic and pharmacodynamic studies. Pharmacokinetic drug determinations were conducted by HPLC. Pharmacodynamic assessments of cellular P-gp function were conducted using an accumulation assay with DiOC2 and flow cytometry. P-gp function was assessed on circulating natural killer (NK) cells and leukemic blasts. […] Means of 3 patients for each time point are shown.
(In general: In flow cytometry, cells or beads pass a laser one at a time.)

Each structure is given as a SMILES string.

Sequence of P450 isoenzyme 3A4 (P08684 whole entry): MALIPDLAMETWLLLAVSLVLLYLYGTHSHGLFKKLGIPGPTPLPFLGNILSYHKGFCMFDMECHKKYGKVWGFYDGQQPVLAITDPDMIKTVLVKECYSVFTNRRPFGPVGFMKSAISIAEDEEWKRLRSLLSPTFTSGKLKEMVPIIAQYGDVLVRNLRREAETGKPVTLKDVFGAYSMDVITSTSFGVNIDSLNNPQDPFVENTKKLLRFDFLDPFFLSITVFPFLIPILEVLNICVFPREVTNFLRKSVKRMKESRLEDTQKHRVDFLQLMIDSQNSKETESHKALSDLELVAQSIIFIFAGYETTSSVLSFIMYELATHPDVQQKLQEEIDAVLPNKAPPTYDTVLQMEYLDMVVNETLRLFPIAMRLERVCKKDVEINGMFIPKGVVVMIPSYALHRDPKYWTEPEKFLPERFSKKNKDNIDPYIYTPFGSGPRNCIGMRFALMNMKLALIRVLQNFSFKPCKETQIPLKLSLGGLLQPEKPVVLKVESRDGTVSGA
T1 sequence (P08183 whole entry): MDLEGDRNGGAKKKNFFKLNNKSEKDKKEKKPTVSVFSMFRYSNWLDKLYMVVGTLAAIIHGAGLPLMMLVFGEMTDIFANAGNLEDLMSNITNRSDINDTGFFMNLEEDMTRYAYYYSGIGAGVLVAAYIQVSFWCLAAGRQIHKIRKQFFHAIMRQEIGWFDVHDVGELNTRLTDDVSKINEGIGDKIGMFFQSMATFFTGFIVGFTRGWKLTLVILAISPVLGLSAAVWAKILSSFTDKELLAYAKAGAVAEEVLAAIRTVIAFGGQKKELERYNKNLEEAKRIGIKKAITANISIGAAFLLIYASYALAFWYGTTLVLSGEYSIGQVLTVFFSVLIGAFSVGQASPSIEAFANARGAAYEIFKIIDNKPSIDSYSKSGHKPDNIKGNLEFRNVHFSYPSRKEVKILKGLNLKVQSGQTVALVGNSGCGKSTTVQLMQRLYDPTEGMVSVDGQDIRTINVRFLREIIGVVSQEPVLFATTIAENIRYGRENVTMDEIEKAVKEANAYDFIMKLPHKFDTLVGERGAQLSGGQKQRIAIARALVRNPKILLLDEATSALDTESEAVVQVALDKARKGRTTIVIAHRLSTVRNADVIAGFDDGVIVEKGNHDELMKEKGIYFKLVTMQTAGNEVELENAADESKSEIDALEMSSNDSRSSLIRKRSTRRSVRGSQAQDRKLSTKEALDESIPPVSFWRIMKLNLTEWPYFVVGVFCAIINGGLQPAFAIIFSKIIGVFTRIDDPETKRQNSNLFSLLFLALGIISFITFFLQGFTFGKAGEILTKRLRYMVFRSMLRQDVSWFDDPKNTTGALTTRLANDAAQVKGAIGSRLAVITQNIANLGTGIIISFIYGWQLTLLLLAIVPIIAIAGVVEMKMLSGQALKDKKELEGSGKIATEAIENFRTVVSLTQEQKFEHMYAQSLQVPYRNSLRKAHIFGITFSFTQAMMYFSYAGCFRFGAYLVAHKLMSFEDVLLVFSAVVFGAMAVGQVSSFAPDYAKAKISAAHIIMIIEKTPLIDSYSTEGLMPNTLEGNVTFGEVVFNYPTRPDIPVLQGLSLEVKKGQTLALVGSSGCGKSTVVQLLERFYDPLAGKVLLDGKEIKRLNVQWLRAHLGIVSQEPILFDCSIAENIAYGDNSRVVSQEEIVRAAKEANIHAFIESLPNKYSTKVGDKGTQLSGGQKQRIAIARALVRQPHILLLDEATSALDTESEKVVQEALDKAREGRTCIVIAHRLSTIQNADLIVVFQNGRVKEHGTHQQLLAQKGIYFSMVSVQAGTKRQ

`C/C=C/C[C@@H](C)C(=O)[C@H]1C(=O)N[C@@H](C(C)C)C(=O)N(C)CC(=O)N(C)[C@@H](CC(C)C)C(=O)N[C@@H](C(C)C)C(=O)N(C)[C@@H](CC(C)C)C(=O)N[C@@H](C)C(=O)N[C@H](C)C(=O)N(C)[C@@H](CC(C)C)C(=O)N(C)[C@@H](CC(C)C)C(=O)N(C)[C@@H](C(C)C)C(=O)N1C` [valspodar]: the “substrate for the P450 isoenzyme 3A4” value at P450 isoenzyme 3A4 is “substrates for the P450 isoenzyme 3A4”.
With `COc1cc(C(=O)C(=O)N2CCCC[C@H]2C(=O)OC(CCCc2cccnc2)CCCc2cccnc2)cc(OC)c1OC` [biricodar], the “substrate for the P450 isoenzyme 3A4” value on P450 isoenzyme 3A4 is “substrates for the P450 isoenzyme 3A4”.
For `O[C@@H](COc1cccc2ncccc12)CN1CCN([C@@H]2c3ccccc3[C@@H]3[C@H](c4ccccc42)C3(F)F)CC1` [zosuquidar], the “time to potent inhibition of P-gp function after start of zosuquidar infusion” value at P-gp was at most 2 h.
